The subject of one test is ASPC1 cells. The test is described as follows: Inhibition of KRas-mediated phosphorylation of ERK (Cisbio HTRF pERK), ASPC1 cells. Type of test: cell-based. As to conditions: Homo sapiens, AsPC-1 cells; for IC50: ASPC1, 3 h, 3 hr compound incubation, Cisbio pERK HTRF. (In general: In TR-FRET formats the signal depends on donor and acceptor labels being close together.)
A further test has as its target KRas G13D (Homo sapiens, UniProt P01116, G13D). The class given is binding. The note with it: single point, 10 nM compound, read-out: Binding to KRas (% inhibition at 10 nM) G13D.
In another test the test system is MKN1 cells. The test can be described thus: Inhibition of KRas-mediated phosphorylation of ERK (Cisbio HTRF pERK), MKN1 cells. The class given is cell-based. As to conditions: Homo sapiens, MKN-1, 3 hour compound incubation, Cisbio pERK HTRF. The method, boiled down:
(§1)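 Growth medium is RPMI with 10% FBS, and each well receives 6,000 cells on the first day of the protocol.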

For the next test, the system named is H358 cells. The test is described as follows: Inhibition of KRas-mediated phosphorylation of ERK (Cisbio HTRF pERK), H358 cells. The class given is cell-based. As to conditions: Homo sapiens; for IC50: NCI-H358, 3 h, 3 hr compound incubation, Cisbio pERK HTRF; for inhibition at 0.1 µM: NCI-H358, single point at 100 nM, 3 hrs compound incubation.
The target of the next test is KRas Q61H (Homo sapiens, UniProt P01116, Q61H). The test is described as follows: KRas binding assay (TR-FRET displacement), KRas Q61H. The note with it: single point, 10 nM compound.
Sequence of KRas Q61H (P01116 1-169 isoform P01116-2 Q61H): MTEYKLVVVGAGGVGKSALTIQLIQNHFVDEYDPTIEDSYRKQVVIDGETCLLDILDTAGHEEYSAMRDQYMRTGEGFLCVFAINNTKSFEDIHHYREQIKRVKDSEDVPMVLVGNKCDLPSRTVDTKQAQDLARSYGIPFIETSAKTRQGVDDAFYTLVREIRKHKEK
The next test concerns the target KRas WT (Homo sapiens, UniProt P01116). The test is described as follows: KRas binding assay (TR-FRET displacement), KRas WT. As to conditions: single point, 10 nM compound.
The next test has as its system H727 cells. The test can be described thus: Inhibition of KRas-mediated phosphorylation of ERK (Cisbio HTRF pERK), H727 cells. The note with it: Homo sapiens; for IC50: NCI-H727, 3 h, 3 hr compound incubation, Cisbio pERK HTRF. The class given is cell-based.
Another test relates to HCT116 cells. The test is described as follows: Inhibition of KRas-mediated phosphorylation of ERK (Cisbio HTRF pERK), HCT116 cells. As to conditions: Homo sapiens, HCT-116, 3 h, 3 hr compound incubation, Cisbio pERK HTRF. The class given is cell-based.
The target in another test is KRas G12R (Homo sapiens, UniProt P01116, G12R). The test can be described thus: biochemical. As to conditions: Binding to KRas (IC50 nM) G12R, TR-FRET displacement, KRas G12R.
Sequence of KRas G12R (P01116 1-169 isoform P01116-2 G12R): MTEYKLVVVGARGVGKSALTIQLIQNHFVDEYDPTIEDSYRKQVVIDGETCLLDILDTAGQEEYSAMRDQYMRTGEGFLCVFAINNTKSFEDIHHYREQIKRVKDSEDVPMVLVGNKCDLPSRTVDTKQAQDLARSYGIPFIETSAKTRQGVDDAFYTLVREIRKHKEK
Another test concerns the target KRas G12A (Homo sapiens, UniProt P01116, G12A). The class given is binding. As to conditions: single point, 10 nM compound, read-out: Binding to KRas (% inhibition at 10 nM) G12A.
A further test deals with PSN1 cells. The test is described as follows: Inhibition of KRas-mediated phosphorylation of ERK (Cisbio HTRF pERK), PSN1 cells. The class given is cell-based. As to conditions: Homo sapiens, PSN1, 3 h, 3 hour compound incubation, Cisbio pERK HTRF. The method, boiled down: as §1
A further test has as its system H460 cells. The test can be described thus: Inhibition of KRas-mediated phosphorylation of ERK (Cisbio HTRF pERK), H460 cells. The class given is cell-based. The note with it: Homo sapiens, NCI-H460, 3 h, 3 hr compound incubation, Cisbio pERK HTRF.
The target in another test is KRas G12V (Homo sapiens, UniProt P01116, G12V). The test is described as follows: biochemical. The note with it: Binding to KRas (IC50 nM) G12V, TR-FRET displacement, KRas G12V.
Sequence of KRas G12V (P01116 1-169 isoform P01116-2 G12V): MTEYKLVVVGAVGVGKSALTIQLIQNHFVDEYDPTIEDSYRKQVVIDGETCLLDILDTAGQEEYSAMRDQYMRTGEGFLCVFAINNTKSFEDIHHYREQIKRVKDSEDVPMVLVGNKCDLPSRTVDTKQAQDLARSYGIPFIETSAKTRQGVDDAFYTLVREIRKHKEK
Another test concerns A549 cells. The test can be described thus: Inhibition of KRas-mediated phosphorylation of ERK (Cisbio HTRF pERK), A549 cells. The class given is cell-based. The note with it: Homo sapiens; for IC50: A549, 3 h, 3 hr compound incubation, Cisbio pERK HTRF; for inhibition at 0.1 µM: single point at 100 nM, 3 hrs compound incubation.
A further test has as its target KRas G12C (Homo sapiens, UniProt P01116, G12C). The class given is binding. As to conditions: single point, 10 nM compound, read-out: Binding to KRas (% inhibition at 10 nM) G12C.
A further test deals with KRas G12S (Homo sapiens, UniProt P01116, G12S). Type of test: binding. The note with it: single point, 10 nM compound, read-out: Binding to KRas (% inhibition at 10 nM) G12S.
Sequence of KRas G12S (P01116 1-169 isoform P01116-2 G12S): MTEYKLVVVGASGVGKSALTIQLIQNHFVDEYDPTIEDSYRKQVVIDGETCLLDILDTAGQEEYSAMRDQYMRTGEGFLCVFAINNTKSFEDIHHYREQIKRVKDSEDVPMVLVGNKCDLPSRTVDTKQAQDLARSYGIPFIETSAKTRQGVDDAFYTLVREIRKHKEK
A further test has as its target KRas G12D (Homo sapiens, UniProt P01116, G12D). The test can be described thus: biochemical. The note with it: Binding to KRas (IC50 nM) G12D, TR-FRET displacement, KRas G12D.

A value given as a limit tells only on which side of the number the result lay.

As usually defined, the IC50 is the concentration that gives 50% inhibition. The low end stands for inhibition by little substance, the high end for a need for much substance. One may read the inhibition as the relative decrease from the control value, in per cent.

Sequence of KRas G12D (P01116 1-169 isoform P01116-2 G12D): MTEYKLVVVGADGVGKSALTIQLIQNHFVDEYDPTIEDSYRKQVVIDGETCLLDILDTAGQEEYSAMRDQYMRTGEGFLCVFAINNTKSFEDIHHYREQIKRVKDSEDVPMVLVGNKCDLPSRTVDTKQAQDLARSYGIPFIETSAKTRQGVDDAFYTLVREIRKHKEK
Sequence of KRas G12C (P01116 1-169 isoform P01116-2 G12C): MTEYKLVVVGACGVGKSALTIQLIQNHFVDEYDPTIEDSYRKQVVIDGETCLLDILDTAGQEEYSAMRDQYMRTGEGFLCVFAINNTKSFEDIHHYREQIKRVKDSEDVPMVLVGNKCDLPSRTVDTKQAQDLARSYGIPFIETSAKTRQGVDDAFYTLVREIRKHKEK
Sequence of KRas WT (P01116 1-169 isoform P01116-2): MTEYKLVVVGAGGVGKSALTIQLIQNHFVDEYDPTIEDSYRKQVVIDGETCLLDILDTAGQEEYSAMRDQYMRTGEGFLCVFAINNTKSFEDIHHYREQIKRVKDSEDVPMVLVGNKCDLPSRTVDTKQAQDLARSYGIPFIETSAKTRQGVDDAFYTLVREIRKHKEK
Sequence of KRas G13D (P01116 1-169 isoform P01116-2 G13D): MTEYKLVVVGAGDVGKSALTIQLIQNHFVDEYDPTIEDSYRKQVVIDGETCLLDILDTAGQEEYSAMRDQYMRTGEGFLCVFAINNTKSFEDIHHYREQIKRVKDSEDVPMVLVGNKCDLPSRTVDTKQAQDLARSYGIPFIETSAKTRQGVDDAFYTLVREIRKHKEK
Sequence of KRas G12A (P01116 1-169 isoform P01116-2 G12A): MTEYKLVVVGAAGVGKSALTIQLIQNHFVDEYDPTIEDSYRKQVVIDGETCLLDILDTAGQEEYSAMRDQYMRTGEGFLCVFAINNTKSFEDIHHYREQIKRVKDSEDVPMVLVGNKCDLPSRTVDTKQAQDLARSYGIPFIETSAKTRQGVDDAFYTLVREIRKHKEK

Turning to `CCc1c(F)ccc2cc(O)cc(N3CCc4c(nc(OC[C@@]56CCCN5C[C@H](F)C6)nc4N4CCCn5nc(C(=O)NC(C)C)c(Cl)c5C4)C3)c12` [Example 386, 3-chloro-5-(7-(8-ethyl-7-fluoro-3-hydroxynaphthalen-1-yl)-2-(((2R,7aS)-2-fluorotetrahydro-1H-pyrrolizin-7a(5H)-yl)methoxy)-5,6,7,8-tetrahydropyrido[3,4-d]pyrimidin-4-yl)-N-isopropyl-5,6,7,8-tetrahydro-4H-pyrazolo[1,5-a][1,4]diazepine-2-carboxamide], the IC50 with ASPC1 cells is 1 nM; in the test on MKN1 cells it was 11.3 nM; in the test with H358 cells it was 1 nM; in the test with H727 cells, 2 nM; in the test with HCT116 cells it was 39 nM; at KRas G12R it was under 2 nM. Also, the IC50 was 2710 nM in the test with PSN1 cells; 19 nM with H460 cells; under 2 nM on KRas G12V; 4 nM in the test on A549 cells; under 2 nM at KRas G12D. The inhibition at 0.01 µM at KRas G13D was 96%; on KRas Q61H it was 97%; on KRas WT it was 95%; on KRas G12A, 92%; at KRas G12C it was 99%; on KRas G12S it was 98%. Moreover, the inhibition at 0.1 µM was found to be 91% in the test on H358 cells and 88% in the test with A549 cells.

For the compound `CCc1c(F)ccc2cc(O)cc(N3CCc4c(nc(OC[C@@]56CCCN5C[C@H](F)C6)nc4N4CCCn5nc(C(=O)N(C)C)c(Br)c5C4)C3)c12` [Example 387, 3-bromo-5-(7-(8-ethyl-7-fluoro-3-hydroxynaphthalen-1-yl)-2-(((2R,7aS)-2-fluorohexahydro-1H-pyrrolizin-7a-yl)methoxy)-5,6,7,8-tetrahydropyrido[3,4-d]pyrimidin-4-yl)-N,N-dimethyl-5,6,7,8-tetrahydro-4H-pyrazolo[1,5-a][1,4]diazepine-2-carboxamide], the IC50 with ASPC1 cells was 1 nM; with MKN1 cells, 3 nM; with H358 cells it was 1 nM; in the test on H727 cells it was 2 nM; in the test with HCT116 cells, 14 nM; at KRas G12R it was under 2 nM. The IC50 in the test on PSN1 cells is 1800 nM; in the test on H460 cells it was 7 nM; at KRas G12V it was under 2 nM; with A549 cells, 1 nM; on KRas G12D, under 2 nM. In addition, the inhibition at 0.1 µM is 99% in the test on ASPC1 cells (ASPC1, single point at 100 nM, 3 hrs compound incubation); 100% in the test on H358 cells; 85% in the test on H727 cells (NCI-H727, single point at 100 nM, 3 hrs compound incubation); 89% in the test on A549 cells. In addition, the inhibition at 0.01 µM at KRas G13D was 99%; at KRas Q61H, 99%; at KRas WT, 99%; on KRas G12A, 99%; on KRas G12C, 100%; at KRas G12S, 100%.

Take `CCc1c(F)ccc2cc(O)cc(N3CCc4c(nc(OC[C@@]56CCCN5C[C@H](F)C6)nc4N4CCCn5nc(C(=O)NC)c(Cl)c5C4)C3)c12` [Example 388, 3-chloro-5-(7-(8-ethyl-7-fluoro-3-hydroxynaphthalen-1-yl)-2-(((2R,7aS)-2-fluorohexahydro-1H-pyrrolizin-7a-yl)methoxy)-5,6,7,8-tetrahydropyrido[3,4-d]pyrimidin-4-yl)-N-methyl-5,6,7,8-tetrahydro-4H-pyrazolo[1,5-a][1,4]diazepine-2-carboxamide]: the IC50 is 1 nM with ASPC1 cells; 8.1 nM with MKN1 cells; 1 nM in the test with H358 cells; 2 nM with H727 cells; 42 nM in the test on HCT116 cells; under 2 nM on KRas G12R. Moreover, the IC50 with PSN1 cells was 2350 nM; in the test with H460 cells it was 20 nM; at KRas G12V, under 2 nM; in the test on A549 cells, 9 nM; at KRas G12D, under 2 nM. Further, the inhibition at 0.01 µM on KRas G13D amounted to 98%; at KRas Q61H it was 99%; at KRas WT, 98%; at KRas G12A, 94%; on KRas G12C, 100%; on KRas G12S, 99%. Further, the inhibition at 0.1 µM with H358 cells was determined as 97%; in the test with A549 cells, 79%.

Turning to `CCc1c(F)ccc2cc(O)cc(N3CCc4c(nc(OC[C@@]56CCCN5C[C@H](F)C6)nc4N4CCCn5nc(C(=O)N(CC)CC)cc5C4)C3)c12` [Example 390, N,N-diethyl-5-(7-(8-ethyl-7-fluoro-3-hydroxynaphthalen-1-yl)-2-(((2R,7aS)-2-fluorohexahydro-1H-pyrrolizin-7a-yl)methoxy)-5,6,7,8-tetrahydropyrido[3,4-d]pyrimidin-4-yl)-5,6,7,8-tetrahydro-4H-pyrazolo[1,5-a][1,4]diazepine-2-carboxamide], the IC50 in the test with ASPC1 cells was 1 nM; in the test with MKN1 cells it was 9.6 nM; in the test on H358 cells, 1 nM; in the test on H727 cells, 3 nM; in the test on HCT116 cells it was 42 nM; on KRas G12R, under 2 nM. The IC50 in the test on PSN1 cells was 3850 nM; in the test with H460 cells, 15 nM; at KRas G12V, under 2 nM; with A549 cells it was 5 nM; at KRas G12D, under 2 nM. Moreover, the inhibition at 0.01 µM on KRas G13D is 95%; on KRas Q61H, 97%; at KRas WT, 95%; on KRas G12A, 95%; on KRas G12C it was 99%; at KRas G12S it was 98%. Further, the inhibition at 0.1 µM was 98% with H358 cells and 79% in the test on A549 cells.

For the compound `CCc1c(F)ccc2cc(O)cc(N3CCc4c(nc(OC[C@@]56CCCN5C[C@H](F)C6)nc4N4CCCn5nnc(Cl)c5C4)C3)c12` [Example 391, 4-(4-(3-chloro-7,8-dihydro-4H-[1,2,3]triazolo[1,5-a][1,4]diazepin-5(6H)-yl)-2-(((2R,7aS)-2-fluorohexahydro-1H-pyrrolizin-7a-yl)methoxy)-5,6-dihydropyrido[3,4-d]pyrimidin-7(8H)-yl)-5-ethyl-6-fluoronaphthalen-2-ol], the IC50 with ASPC1 cells was 4 nM; with MKN1 cells it was 57.6 nM; in the test with H727 cells, 26 nM; in the test with HCT116 cells, 128 nM; at KRas G12R it was 3 nM; in the test on PSN1 cells, over 10000 nM. The IC50 with H460 cells was 43 nM; on KRas G12V it was under 2 nM; at KRas G12D, under 2 nM. Moreover, the inhibition at 0.01 µM on KRas G13D stood at 86%; at KRas Q61H, 85%; on KRas WT, 81%; at KRas G12A, 81%; on KRas G12C, 93%; at KRas G12S, 94%. The figures for the inhibition at 0.1 µM with H358 cells and in the test on A549 cells were 77% and 69%, respectively.
